# Reference: patent US20200253877A1, “GEMCABENE, PHARMACEUTICALLY ACCEPTABLE SALTS THEREOF, COMPOSITIONS THEREOF AND METHODS OF USE THEREFOR” (NEUROBO PHARMACEUTICALS, INC., priority 2018, published 2020)
# System: hepatic mRNA expression in STAM™ mice
# Assay: Murine STAM model of NASH-HCC: hepatic gene expression by quantitative RT-PCR
# Assay type: in vivo, mouse
# Description: A study was performed to evaluate the efficacy of gemcabene calcium salt hydrate Crystal Form 1 having a PSD90 of 52 μm as measured by laser light diffraction, in treating non-alcoholic steatosis hepatitis (NASH) in the murine STAM™ model of NASH-HCC.
# Briefly, two-day old neonatal C57BL/6 male mice were administered low-dose streptozotocin (STZ), and were subsequently fed a HFC diet from 4 weeks of age. In this model, the mice typically develop liver steatosis and diabetes, reaching steatohepatitis within 3 weeks, followed by cirrhosis within 8 weeks, and carcinoma within 16 weeks. In the current study, mice were administered daily oral gemcabene calcium salt hydrate Crystal Form 1 starting at week 6 of age and were sacrificed at week 9. […] These STAM™ groups were orally administered from week 6 one of the following: water-vehicle, gemcabene calcium salt hydrate Crystal Form 1 at 30, 100 and 300 mg/kg daily, or telmisartan ([…]®) 10 mg/kg daily. […] All groups were sacrificed at week 9. Vehicle, gemcabene calcium salt hydrate Crystal Form 1, or telmisartan were administered by oral gavage once daily.
# Various gene expression markers of liver metabolism were evaluated by Real-Time PCR (RT-PCR) in all mouse groups. Total RNA was extracted from liver samples using RNAiso (Takara Bio, Japan) according to the manufacturer's instructions. […] of RNA was reverse-transcribed using a reaction mixture containing 4.4 mM MgCl2 (F. Hoffmann-La Roche, Switzerland), 40 U RNase inhibitor (Toyobo, Japan), 0.5 mM dNTP (Promega, USA), 6.28 μM random hexamer (Promega), 5×first strand buffer (Promega), 10 mM dithiothreitol (Invitrogen, USA) and 200 U MMLV-RT (Invitrogen) in a final volume of 20 μL. The reaction was carried out for 1 hour at 37° C., followed by 5 minutes at 99° C. Real-time PCR was performed using real-time PCR DICE and SYBR premix Taq (Takara Bio). To calculate the relative mRNA expression level, the expression of each gene was normalized to that of reference gene 36B4 (gene symbol: RplpO). Information of PCR-primer sets is described in Tables 37A-37C. Statistical analyses were performed using the Bonferroni Multiple Comparison Test on GraphPad Prism 6 (GraphPad Software Inc., USA). P values <0.05 were considered statistically significant. Results are expressed as mean±SD.
# In order to calculate the relative mRNA expression level, the expression of each gene was normalized to that of the reference gene 36B4 (gene symbol: RplpO). The gene expression levels were measured by quantitative RT-PCR. Results were normalized with values for the vehicle-treated normal group. […] Gemcabene calcium salt hydrate Crystal Form 1 (PSD90=52 μm) modulated the mRNA expression of many hepatic genes that play a significant role in the liver homeostasis and injury.
# [1] = 10 mg/kg, n = 7, STAM mice, normalized to non-treated group
# [2] = gemcabene Form 1 100 mg/kg, telmisartan 10 mg/kg
# [3] = vs Vehicle in NASH group, gemcabene Form 1 100 and 300 mg/kg, telmisartan 10 mg/kg
smiles,measurement,setting,value
"CCCc1nc2c(C)cc(-c3nc4ccccc4n3C)cc2n1Cc1ccc(-c2ccccc2C(=O)O)cc1 [telmisartan, reference compound]",ACC1 gene expression (mean ± SD),[1],0.7 ± 0.1
same,ACC2 gene expression (mean ± SD),[1],0.3 ± 0.1
same,ADH-4 gene expression (mean ± SD),[1],0.6 ± 0.2
same,ANGPTL3 gene expression (mean ± SD),[1],0.7 ± 0.2
same,ANGPTL4 gene expression (mean ± SD),[1],2.1 ± 0.3
same,ANGPTL8 gene expression (mean ± SD),[1],0.3 ± 0.1
same,ApoC-III gene expression (mean ± SD),[1],0.8 ± 0.2
same,CCR2 gene expression (mean ± SD),[1],2.4 ± 0.8
same,CCR5 gene expression (mean ± SD),[1],1.5 ± 0.3
same,CRP gene expression (mean ± SD),[1],0.9 ± 0.1
same,CXCL1/KC gene expression (mean ± SD),[1],0.6 ± 0.3
same,Fetuin-A gene expression (mean ± SD),[1],1.0 ± 0.1
same,IL-1β gene expression (mean ± SD),[1],0.7 ± 0.2
same,IL-6 gene expression (mean ± SD),[1],0.8 ± 0.4
same,LDL receptor gene expression (mean ± SD),[1],0.7 ± 0.3
same,LPL gene expression (mean ± SD),[1],2.4 ± 0.5
same,MCP-1 gene expression (mean ± SD),[1],2.1 ± 1.0
same,MIP-1β gene expression (mean ± SD),[1],3.9 ± 1.5
same,MMP-2 gene expression (mean ± SD),[1],1.4 ± 0.7
same,NF-κB gene expression (mean ± SD),[1],1.1 ± 0.1
same,PNPLA3 gene expression (mean ± SD),[1],0.1 ± 0.0
same,SCD1 gene expression (mean ± SD),[1],0.1 ± 0.0
same,SREBP-1 gene expression (mean ± SD),[1],0.7 ± 0.2
same,Sulf-2 gene expression (mean ± SD),[1],3.9 ± 0.9
same,TIMP-1 gene expression (mean ± SD),[1],8.6 ± 5.1
same,TNF-α gene expression (mean ± SD),[1],3.0 ± 1.2
same,α-SMA gene expression (mean ± SD),[1],2.3 ± 0.7
same,LDL receptor gene expression,STAM mice,no effect
same,"ACC-1 mRNA expression (relative, mean±SD)",[2],0.7±0.1
same,"ADH-4 mRNA expression (relative, mean±SD)",[2],0.6±0.2
same,"CCR2 mRNA expression (relative, mean±SD)",[2],2.4±0.8
same,"CCR5 mRNA expression (relative, mean±SD)",[2],1.5±0.3
same,"CRP mRNA levels (relative, mean±SD)",[2],No significant differences
same,"MCP-1 mRNA expression (relative, mean±SD)",[2],2.1±1.0
same,"MIP-1β mRNA levels (relative, mean±SD)",[2],3.9±1.5
same,hepatic LPL mRNA expression levels,"vs Vehicle in NASH group, gemcabene Form 1 30, 100 and 300 mg/kg, telmisartan 10 mg/kg",no significant difference
same,ANGPTL4 mRNA expression levels,[3],significant down-regulations
same,IL-6 mRNA expression level,[3],significant down-regulations
